Test results taken from US20240261425A1, “CONJUGATE AND THE PREPARING METHOD AND USE THEREOF” (Nanjing University, priority 2021, published 2024).

Assays:
sfGFP-TEV = assay: Modification of sfGFP-TEV by derivatives of the reagent 1; conditions: 2 h
Procedure: When the benzene ring of the Reagent 1 was modified with different substituents (Michael acceptor 1-1 to 1-4), the difference of different substituents on the addition reaction (for example, the addition activity) was investigated (Table 5). Michael acceptor 1-1 to 1-4 were reacted with sfGFP-TEV.
MA 2 or MA 2 analogues (i.e. Compounds 1a, 1a-1, 1b, 1b-1) (1 μL, 20 mM in DMSO) and PBS (15 μL, pH=7.4, 50 mM) were added to a solution of GFP-TEV (4 μL, 250 μM in HEPES buffer). After incubation at 37° C. for 2 h, the solution was desalted to give the product before LC-MS analysis.

[1] = Stability of linker-modified sfGFP in buffer comprising GSH (thiol exchange, mass spectrometry); type: physicochemical; conditions: 37° C., different times
Procedure: GSH (0.8 μL, 100 mM) and PBS (20 μL, pH=8.0, 50 mM) were added to a solution of GFP-Linker (20 μL, 40 μM, in PBS) at 37° C. for 48 h. (FIG. 20)
The stability of a sfGFP modified PhESF as a linker was verified, using the linker 5 and 4 with higher reactivity as controls. After sfGFP had been modified, it was added to the buffer comprising GSH, and was placed at 37° C. for different time, and a mass spectrometry was performed.

SMILES | Addition number (sfGFP-TEV) | Conv. (%) (sfGFP-TEV) | thiol exchange [1]
O=S(=O)(F)/C=C/c1ccccc1 [Michael acceptor 1] | 2 | >99% | did not have a thiol exchange
CN1C(=O)C=CC1=O [linker 5, reference compound] |  |  | obviously undergo thiol exchange
